From ChEMBL document CHEMBL1157539, “Thousands of chemical starting points for antimalarial lead identification” (Nature, 2010)

Tested on: Plasmodium falciparum
Test: GSK_TCMDC: Inhibition of Plasmodium falciparum 3D7 in whole erythrocytes, using parasite LDH activity as an index of growth.
Type: functional, organism-based
Settings: Plasmodium falciparum, 3D7

SMILES | XC50
Cc1cc(Nc2ccc(C)c(C)c2)n2nc(C)nc2n1 | 599 nM
O=C(NC1CCC(CCN2Cc3ccc(Br)cc3C2)CC1)c1cccc(-c2cccnc2)c1 (centres undefined) | 927 nM
COc1ccc(-c2nc3cccnc3n2CC(=O)Nc2c(C)cc(C)cc2C)c(OC)c1 | 927 nM
Cc1cc(C(=O)NC2CCN(CC3(c4ccccc4)CCCCC3)CC2)on1 | 258 nM
COc1ccc2nccc([C@@H](O)CN3CCC(NCc4nc5cc(F)ccc5o4)CC3)c2c1 | 149 nM
COc1ccc(NC(=O)Nc2ccc(-c3cccc(-c4nc5ccccc5[nH]4)c3)cc2)cc1 | 764 nM
N=c1n(CCN2CCCCC2)c2ccccc2n1CC(O)c1cccc(Br)c1 (centres undefined) | 1140 nM
CCNc1cc(C(=O)N[C@@H](Cc2ccccc2)[C@H](O)CNC(C)(C)CCCC(C)C)cc(N2CCCCS2(=O)=O)c1 | 446 nM
Cc1nc(-c2nc(NCc3ccccn3)ncc2-c2ccsc2)sc1C | 559 nM
O=C(/C=C/c1ccc(Cl)cc1)NCCCCCN1CCCC(C(=O)Nc2cccc(Cl)c2)C1 (centres undefined) | 208 nM
O=C(Nc1ccc2c(c1)CCNCC2)Nc1ccc2ccccc2c1 | 622 nM
CC(C)COc1ccc(Cl)cc1Cc1ccc(-c2nc3ccc(F)cc3[nH]2)o1 | 854 nM
O=C(Nc1ccc(C(=O)Oc2ccc3ccccc3c2)cc1)N[C@@H](Cc1ccc(O)cc1)C(=O)NC1CCN(Cc2ccc(O)cc2)C1 (some centres undefined) | 1060 nM
O=C(/C=C/c1ccc(Cl)c(Cl)c1)NCCCCCN1CCCC(CNS(=O)(=O)c2cccc(C(F)(F)F)c2)C1 (centres undefined) | 950 nM
COc1ccc(Nc2ccnc3cc4ccccc4cc23)cc1 | 683 nM
Cc1cc(Nc2ncc(C#N)c(Nc3ccccc3C(N)=O)n2)ccc1N1CCN(C)CC1 | 8.63 nM
NS(=O)(=O)c1cncc(-c2ccc3nccc(-c4cn[nH]c4)c3n2)c1 | 526 nM
COC(=O)c1cccc(CNCc2ccc(-c3ccc(-c4nc5cc(C(F)(F)F)ccc5[nH]4)s3)cc2)c1 | 157 nM
Fc1c(CNCC2CCN(CC3CCCCC3)CC2)cccc1C(F)(F)F | 900 nM
CCN1CCN(c2cc(C)c3cc(NC(=O)c4ccc(OC)c(OC)c4)ccc3n2)CC1 | 1030 nM
CCCN(CCC)CCOC(=O)C(OCC)(c1ccccc1)c1ccccc1 | 871 nM
COc1ccc(OC)c(CNCC(O)c2cc(C(F)(F)F)cc(C(F)(F)F)c2)c1 (centres undefined) | 443 nM
CCCCn1c(N)c(N(Cc2ccco2)C(=O)C=Cc2cc(OC)c3c(c2)OCCO3)c(O)nc1=O | 946 nM
Cc1cc2c(NC(=O)NC3CCN(CCc4ccccc4Cl)CC3)cccc2cn1 | 387 nM

SMILES | XC50
CC(C)(C)C1CCc2nc(N)nc(N)c2C1 (centres undefined) | 12.6 nM
COCCn1c(Sc2ncnc3sccc23)nc2ccccc21 | 879 nM
CC(Cc1ccc(C(=O)Nc2ccc(CC(C)NCCc3cccc(Cl)c3)cc2)cc1)NCCc1ccc(C(F)(F)F)cc1 (centres undefined) | 570 nM
Cc1cccc(C)c1CNc1cccc(-c2nc(C)c(C)[nH]2)c1 | 883 nM
Cc1cc(C2CCN(CCCCNC(=O)c3ccc(-c4ccc(C(F)(F)F)cc4)cc3)CC2)c(C)cc1OCCO | 885 nM
Cc1[nH]c(C)c(-c2ccc(-c3cccc(Cl)c3)nc2)c(=O)c1Br | 318 nM
O=C1C([N+](=O)[O-])=C(O)c2c(F)cccc21 | 149 nM
Nc1nccc2ccc(-c3ccsc3)cc12 | 332 nM
Cc1cc(N/N=C/c2ccccc2[N+](=O)[O-])c2cc(C(F)(F)F)ccc2n1 | 750 nM
COc1ccc(CNCCCCCCNCc2ccc(OC)c3ccccc23)c2ccccc12 | 581 nM
CN1CCC(NCCS(=O)(=O)c2cccc(Nc3ccc(-c4cccc(F)c4)cn3)c2)CC1 | 1360 nM
O=C(Nc1ccc(C(F)(F)F)cc1)NC1CCN(c2ccnc3ccccc23)CC1 | 185 nM
C[C@@H](CC1CCCCC1)OC(=O)N(C)[C@@H]1CCN(C#N)C1 | 621 nM
CCCN1CCC(NCc2cn(C)nc2-c2ccc(Oc3ccccc3)cc2)CC1 | 1440 nM
O=C(N[C@@H](Cc1ccccc1)C(=O)NCCN1CCCC1)c1ccc(O)c(-c2ccc(Cl)c(Cl)c2)c1 | 800 nM
COc1ccc(NC(=O)c2cn(-c3ccc(C(C)(C)C)cc3)nc2C)cc1N1CCN(C)CC1 | 949 nM
CCC1=C[C@@H]2CN(C1)Cc1c([nH]c3ccccc13)[C@@](C(=O)OC)(c1cc3c(cc1OC)N(C)[C@H]1[C@@](O)(C(=O)OC)[C@H](O)[C@]4(CC)C=CCN5CC[C@]31[C@@H]54)C2 | 866 nM
c1ccc(CNCc2cccc(-c3ccc(-c4nc5ccccc5[nH]4)s3)c2)cc1 | 818 nM
CN(C)Cc1cccc(CNC(=O)c2sccc2OCc2ccc(Cl)cc2)c1 | 835 nM
CN(C)CCOc1ccc2nc(-c3cccc(OCc4ccccc4)c3)[nH]c2c1C#N | 256 nM
O=C(/C=C/c1ccc(Cl)cc1)NCCCCCN1CCN(C(=O)Nc2ccc(Cl)c(C(F)(F)F)c2)CC1 | 920 nM
C[C@@H]1CC[C@H](NC(=O)[C@H](CC2CCCC2)NC(=O)N2CCNCC2)C(=O)CN1S(=O)(=O)c1ccccn1 | 891 nM
COc1ccc2c(=NN=Cc3c(OC)ccc4ccccc34)cc(C)[nH]c2c1 | 777 nM
COc1ccccc1C1CCN(CCCCNC(=O)c2ccc(/C=C/c3cc(Cl)cc(Cl)c3)cc2)CC1 | 718 nM

SMILES | XC50
Cc1ccc(C(=O)Nc2ccc(F)c(F)c2F)cc1S(=O)(=O)N1CCCCC1 | 763 nM
CC(CNC(=O)c1cc2c(Cl)cc(Cl)cc2[nH]1)CNc1cc(=O)c2ccccc2[nH]1 (centres undefined) | 715 nM
CNCCNCc1ccc(-c2ccc(-c3nc4cc(F)ccc4[nH]3)s2)cc1 | 772 nM
CCN(CC)CCN(Cc1ccc(-c2ccc(C(F)(F)F)cc2)cc1)C(=O)Cn1c(CCc2ccc(F)c(F)c2F)nc(=O)c2ccc(F)cc21 | 736 nM
COc1ccc(NC(=O)Nc2nc(-c3ccc(Cl)c(C)c3)cs2)cc1N1CCN(C)CC1 | 266 nM
COc1cccc(C(=O)NCc2nnc(S)n2-c2ccc(Cl)c(Cl)c2)c1 | 173 nM
CC(C)(C)c1ccc(NC(=O)c2ccc(CN3CCCN(CC4CCCCC4)CC3)cc2)cc1 | 542 nM
CC1(C)Cc2c(oc3ncn(CCn4cnc5oc6c(c5c4=N)CC(C)(C)SC6)c(=N)c23)CS1 | 719 nM
Cc1cccc(NC(=O)NC2CCN(CCCCCNC(=O)/C=C/c3ccc(Cl)c(Cl)c3)CC2)c1 | 753 nM
COc1ccc(N2CCN(CCCCNC(=O)c3ccc(NC(=O)c4ccc(Cl)c(Cl)c4)cc3)CC2)c(OC)c1 | 212 nM
Cc1cccc2nc(-c3ccc(-c4cccc(CNC(C)C)c4)s3)[nH]c12 | 231 nM
COc1ccc(C2=C(Nc3ccc4oc5ccccc5c4c3)c3ccccc3C2=O)cc1 | 830 nM
Cc1cccc2nc(-c3ccc(-c4cccc(CN5CCC(CCN6CCCCC6)CC5)c4)s3)[nH]c12 | 140 nM
COc1ccc(CNC2CCN(C)CC2)cc1-c1ccc(S(=O)(=O)NCc2cccnc2)s1 | 835 nM
Cc1ccc(CNC(=O)[C@H](Cc2ccccc2)Nc2cc(C)nc(NCC3CCCCC3)n2)cc1 | 899 nM
OCCN1CCN(Cc2ccc(-c3cccc(-c4nc5cc(F)ccc5[nH]4)c3)cc2)CC1 | 608 nM
CNc1ccc(CNCc2ccc(-c3ccc(-c4nc5cccc(C)c5[nH]4)cc3)cc2)cc1 | 319 nM
Oc1ccc(CCNc2nc(NCCCOc3cccc(-c4ccccc4)c3)nc(N3CCNCC3)n2)cc1 | 1130 nM
O=C(/C=C/c1ccc(Cl)c(Cl)c1)NCCCCCN1CCC(NC(=O)c2ccc(F)cc2)CC1 | 706 nM
O=C(/C=C/c1ccc(Cl)c(Cl)c1)NCCCCCCN1CCCN(C(=O)Nc2cccc(C(F)(F)F)c2)CC1 | 793 nM
Cc1ccc2cc(NCCCCCCCCON3C(N)=NC(N)=NC34CCCCC4)ccc2n1 | 163 nM
COc1ccc2c(=NN=Cc3ccc(F)cc3)cc(C)[nH]c2c1 | 773 nM
OCCN1CCN(C2Cc3ccc(F)cc3Sc3ccc(Cl)cc32)CC1 (centres undefined) | 876 nM
Cc1nc(C)c(-c2ccc(Oc3ccc(OC(F)(F)F)cc3)cc2)c(OC(=O)c2ccc(CN(C)C)cc2)c1Cl | 137 nM

SMILES | XC50
COc1cc(NC(=O)Nc2cccc3ccccc23)c(OC)cc1Cl | 484 nM
Cc1[nH]c(C)c(-c2csc3ccccc23)c(=O)c1Cl | 1020 nM
CCCc1ccc(NC(=O)c2ccc(CN3CCCN(Cc4cccc(O)c4)CC3)cc2)cc1 | 396 nM
NC(=O)c1ccc(-n2cnc3cc(F)ccc32)cc1OCc1ccccc1C(F)(F)F.NC(=O)c1ccc(-n2cnc3ccc(F)cc32)cc1OCc1ccccc1C(F)(F)F | 363 nM
Cn1c(NC(=O)C2CCCN(C(=O)c3ccc(O)c(-c4ccc(Cl)c(Cl)c4)c3)C2)nc2ccccc21 (centres undefined) | 751 nM
CC(=O)Nc1cc(C(=O)Nc2ccc(C3=NCCN3)cc2)ccc1C(=O)Nc1ccc(C2=NCCN2)cc1 | 133 nM
Cn1cncc1CCN(Cc1ccc(-c2ccc(C(F)(F)F)cc2)cc1)C(=O)Cn1c(SCc2cccc(F)c2F)cc(=O)c2ccccc21 | 990 nM
COc1ccc2ncc(F)c(CCN3CCC(CNCc4cccc5c4OCO5)CC3)c2n1 | 934 nM
CCN1CCC(N(Cc2ccc(-c3ccc(C(F)(F)F)cc3)cc2)C(=O)Cn2c(SCc3cccc(F)c3F)cc(=O)c3ccccc32)C1 (centres undefined) | 882 nM
COc1ccc2nccc([C@@H](O)CN3CCC(NC(=O)C(=Cc4ccc(C#N)cc4)c4ccc(-c5ccccc5)cc4)CC3)c2c1 | 739 nM
COc1cc2nc(NCCc3ccccc3)nc(N(C)Cc3ccccc3)c2cc1OC | 831 nM
Cc1cc2c(cc1C(F)(F)F)N(C(=O)Nc1cc(C(=O)NC3CCN(Cc4ccccc4)C3)cc(C(F)(F)F)c1)CC2 (centres undefined) | 339 nM
Cc1nnsc1C(=O)Nc1ccc(-c2cccc(-c3nc4cccc(C)c4[nH]3)c2)cc1 | 630 nM
CC(C)NCc1cccc(-c2cccc(NC(=O)c3ccc(C#N)cc3)c2)c1 | 646 nM
COc1ccccc1-c1cccc(-c2cccc(NC(=O)c3ccc([N+](=O)[O-])o3)c2)n1 | 603 nM
O=C(/C=C/c1ccc([N+](=O)[O-])cc1)N1CCC(NS(=O)(=O)c2ccc(Br)cc2)CC1 | 1050 nM
CC(C)(CNC(=O)[C@@H]1CCCCN1)c1nc(-c2ccc(Cl)c(O)c2)c(-c2ccncc2)[nH]1 | 841 nM
Cc1cnc(C(=O)Nc2cccc(-c3ccc(-c4nc5cc(C(F)(F)F)ccc5[nH]4)s3)c2)cn1 | 704 nM
CN1CCN(c2cc3c(Nc4ccc5c(cnn5Cc5ccccc5)c4)ncnc3cn2)CC1 | 1130 nM
COC(=O)/C=C/c1ccc(CC(C)NCC(O)c2cccc(C(F)(F)F)c2)cc1 (centres undefined) | 731 nM
O=S(=O)(Nc1ccc(CCN2CCCCC2CCN2CCCC2)cc1)c1ccc(-c2ccccc2)cc1 (centres undefined) | 926 nM
COc1ccc(-c2ccc(NC(=O)c3ccc(Cl)cc3)cc2)cc1CN1CCNCC1 | 129 nM
